Tested on: primary human airway epithelial cells
Experiment: IL-13 stimulation of airway epithelial cells in vitro, real time RT-PCR
Format: cell-based
Conditions: IL-13 10 ng/mL, up to 4 days
Experimental: To confirm that airway epithelial cells are a source of serpinB2 and periostin and that these genes may be induced by cytokines relevant to asthma, we stimulated primary human airway epithelial cells in vitro with IL-13 (0.1 to 10 ng) for up to 4 days (methods in supplementary appendix).
Human primary bronchial airway epithelial cells were purchased (Clonetics—Cambrex Bio Science, Walkersville Md.) and grown as described by Gray et al.^7 Cells were purchased at passage 1 and expanded in T25 flasks until they reached 80% confluency at which time they were passaged onto 6.5 mm Transwell permeable supports at a density of 132,000 cells/filter. The cells were grown submerged in Gray's medium until approximately day 7 to 9 at which point an air-liquid interface was established. Cells became fully differentiated (ciliated and mucous producing) as determined by transepithelial voltage and resistance after 2-3 weeks on the filters. Cells were exposed to the recombinant human IL-13 (R&D Systems, Minneapolis Minn.) for up to four days at concentrations ranging from 0.1 ng/ml to 10 ng/ml. Filters were cut from the support and submerged in RLT lysis buffer (Qiagen Inc, Valencia Calif.) and stored at −80° C. before analysis of gene expression by real time RT-PCR.

IL-13: recombinant human IL-13 (R&D Systems) used to stimulate airway epithelial cells
Epithelial gene expression of periostin: large increases
Epithelial gene expression of serpinB2: large increases
